Entries after “also recorded” stand apart in the source; their conditions may differ.
Legend:
IL-10 secretion [1] = settings: Dopamine 10^−8 M, 72 hours
TNFα secretion = TNFα secretion by human peripheral T-cells (sandwich ELISA); assay type: cell-based
Excerpt: (§1) The results are expressed as pg/ml.
(§2) The results are expressed as pg/mi.
as §1, §1, §1

IL-10 secretion [2] = experiment: IL-10 secretion by human peripheral T-cells (sandwich ELISA); assay type: cell-based; settings: for inhibition of Dopamine-induced IL-10 secretion by receptor-specific antagonists: L-741,626 10^−7 M, U-Mal 10^−6 M, L-741,741 10^−6 M
Excerpt: The results are expressed as pg/ml IL-10. […] Immunostaining is with intracellular anti-IL-10 FITC conjugated (FL-1) and anti-CD4 PE conjugated (FL-2) antibodies, as described in Materials and Methods hereinbelow.
as §2, §1, §1, §1

[3] = tested on: normal human peripheral T-cells; settings: Dopamine 10^−8 M, 48 hours
IL-4 secretion = settings: Dopamine 10^−8 M, 24 hours
[4] = tested on: normal human peripheral T-cells
normal human T-cells = experiment: T-cell adhesion assay (adhesion of human T-cells to fibronectin); settings: dose dependence, human T-cells
Experimental: T-cell adhesion assay: In the majority of the experiments, adhesion of purified normal human T-cells to fibronectin was assayed with radioactively labeled T-cells as follows: normal human T-cells, purified from a fresh blood sample, were labeled with Na2[^51CrO4], washed, and resuspended in adhesion medium (RPMI-1640 supplemented with 2% BSA, 1 mM Ca^++, 1 mM Mg^++, 1% sodium pyruvate, 1% glucose, and 1% HEPES buffer). The cells were then pre-treated (30 min., 37° C.) with DPAT, and added to fibronectin coated (1 μg/well; Sigma Chemicals, St. Louis, Mo.) microtiter flat-bottomed 96 well plates (1×10^5 cells/100 μl/well). The plates were placed in a humidified incubator (37° C., 30 min., 10% CO2), and than washed thoroughly several times with PBS, to remove non-adherent T-cells. The adherent T-cells were lysed with 1% Tween 20 in 1N NaOH, and the radioactivity in the resulting supernatants was determined in a γ-counter. For each experimental group, results were expressed as the mean CPM±SD of bound T-cells from quadruplicate wells. DPAT-treated T-cell adhesion to BSA-(rather than fibronectin) coated wells, and untreated T-cell adhesion to fibronectin coated wells, were the standard negative controls.
Non-radioactive T-cell adhesion assays: Alternatively, T-cell adhesion assays were performed with non-radioactively labeled cells, differing from the above protocol only in the final detection steps which were performed as follows: After the final washing of the adhesion plates and removal of the non adherent cells, the microtiter wells were supplemented with lysis and substrate solution (60 μl/well of: 0.5% Triton X-100 in water mixed with an equal volume of 7.5 mM p-nitrophenol-N-acetyl-β-D-glucosaminide, (Sigma Chemicals, St. Louis, Mo.) in 0.1M citrate buffer pH=5.0). The plates were then incubated (˜18hr) in a CO2-free 37° C. incubator, supplemented with stop solution (90 μl/well of 50 mM glycine, (Sigma Chemicals, St. Louis, Mo.) pH=10.4 containing 5 mM EDTA), and the optical density was measured at 405 nm in a standard Elisa reader.

[5] = tested on: Dopamine receptors on normal human T-cells; settings: for blocking of DPAT-induced T-cell adhesion to fibronectin: DPAT 10 nM
Experimental: Non-radioactive assessment of T-cell binding was performed as described in Material and Methods, results presented as the mean ±OD of bound T-cells from 4-6 wells.
The treated cells were suspended in adhesion medium and incubated (30 min., 37° C.) in a humidified 10% CO2 incubator. The cells were seeded in the fibronectin-coated microtiter plates, and the plates were then returned to the incubator for an additional 30 min. incubation. The amount of T-cell adhesion was determined as above.

[6] = tested on: SJL/J anti PLP 139-151 T-cells; experiment: Experimental autoimmune encephalomyelitis (EAE) induced by encephalitogenic T-cells treated ex vivo; assay type: in vivo, mouse; settings: U-Mal 10^−7 M, 5 minutes before DPAT
[7] = tested on: oxazalone-sensitized T-cells; experiment: Passively transferred delayed type hypersensitivity (DTH) with T-cells treated ex vivo; assay type: in vivo, mouse
Experimental: Lymph nodes were removed from oxazalone-sensitized mice, and the T-cell suspension was exposed ex-vivo to increasing concentrations of DPAT (FIG. 9A, DPAT […]-DPAT 10^−6M) as described for FIG. 8 hereinabove. Control T-cells were incubated with medium only (untreated T-cells). The T-cells were then washed, resuspended in PBS and injected intravenously into naive syngeneic mice. The ears of the recipient mice were than challenged with oxazalone, and the degree of ear swelling was measured by micrometer 24 hr later. DTH is expressed as the mean ±SD of ear swelling in units of 10^−2 mm. […] Oxazalone-sensitized T-cells were incubated ex vivo for one hour with either DPAT (10^−8 M, +DPAT) or U-Mal (10^−7 M, +U-Mal), or both. The T-cells were then washed, resuspended in PBS, injected intravenously into normal recipients, and DTH measured as described hereinabove. […] FIGS. 9A and 9B represent two individual experiments, each experimental group consisting of 8 mice.
Passively transferred delayed type hypersenisitivity (DTH): Groups of 6-8 BALB/c female mice (The Jackson Laboratory, Bar Harbor, Mass., USA) were sensitized on the abdominal skin with 200 μt of 2% oxazalone dissolved in acetone/olive oil [4:1 vol/vol)] applied topically. Five days later, lymph nodes were removed from the sensitized mice, and a cell suspension prepared. The cells (3-5×10^6/ml in RPMI, no additional supplements) were than added for […] incubation ([…]. 37° C., 10% CO2 humidified incubator) with either DPAT, U-Mal, or both (in the latter combination the antagonist added 5 minutes before the agonist). The cells were than washed, resuspended in PBS, and injected IV (40×10^6 /mouse) into normal BALB/c recipients. Immediately afterwards the recipient mice were […] with 10 μl of 2% oxazalone in acetone/olive oil, applied topically to each side of the ear. A constant area of the ear was measured immediately before challenge and 24 hr after the challenge with a Mitutoyo engineer's micrometer. The individual measuring the ear swelling was unaware of the identity of the mice groups. The DTH reaction is expressed as the mean±SD (for each group) of the increment of ear swelling 24 hours after inoculation of the oxazalone-sensitized T-cells, in units of 10^−2 mm.

α4β1 and α5β1 integrins = experiment: Inhibition of induced T-cell adhesion to fibronectin with specific integrin blockers; assay type: cell-based, human; settings: for blocking of DPAT-induced T-cell adhesion to fibronectin by integrin blockers: DPAT 10 nM; for blocking of DPAT-induced T-cell adhesion to fibronectin by integrin blockers / blocking of Dopamine-induced T-cell adhesion to fibronectin by integrin blockers: mAbs 15-25 μg/ml, peptides 50 μg/ml; for blocking of Dopamine-induced T-cell adhesion to fibronectin by integrin blockers: Dopamine 10 nM; for inhibition of PMA-induced T-cell adhesion to fibronectin by integrin blockers: PMA as positive control
Experimental: The results are presented as the mean ±SD CPM of bound T-cells from quadruplicate wells. One experiment, representative of two, is presented for each of the three inducers of T-cell binding.
The treated cells were seeded in fibronectin-coated microtiter plates.

NCCc1ccc(O)c(O)c1 [Dopamine]
IL-10 secretion, cloned resting Th0 cells (IL-10 secretion [1]): strong induction | IL-10 secretion, cloned resting Th1 cells ("forbidden" cytokine) (IL-10 secretion [1]): secreting significant amounts of IL-10 | IL-10 secretion, cloned resting Th2 cells (IL-10 secretion [1]): strong induction | Dopamine concentration inducing maximal TNFα secretion (TNFα secretion; 24 hours): 10^−4 M | Dopamine concentration with significant effect on TNFα secretion (TNFα secretion; 24 hours): ≥ 10^−8 M | TNFα secretion at excess Dopamine (TNFα secretion; Dopamine 10^−3 M): drastic reduction in cytokine secretion | TNF-α release (TNFα secretion; Dopamine 10^−8 M, 24 hours, no antigen stimulation): induced a strong release of TNF-α | Dopamine concentration inducing maximal IL-10 secretion (IL-10 secretion [2]; 72 hours): 10^−4 M | Dopamine concentration with significant effect on IL-10 secretion (IL-10 secretion [2]; 72 hours): ≥ 10^−8 M | increase in IL-10 secretion (IL-10 secretion [2]; Dopamine 10 nM, 72 hours): 2.5 fold | IL-10 secretion at excess Dopamine (IL-10 secretion [2]; Dopamine 10^−3 M): drastic reduction in cytokine secretion | time of maximal IL-10 secretion (IL-10 secretion [2]; Dopamine 10^−8 M): 72 h | IL-10 release (IL-10 secretion [2]; Dopamine 10^−8 M, 72 hours, no antigen stimulation): induced a strong release of IL-10 | increase in the number of IL-10 producing T-helper cells [3]: 9% | IL-4 secretion (IL-4 secretion): but not IFN-γ (FIG. 11B) or IL-4 | cellular death in normal T-cells [4]: induces cellular death | r-RNA bands in total RNA (loss of viability) ([4]; Dopamine 10^−3): near total absence of r-RNA bands | optimum concentration for induction of T-cell adhesion to fibronectin (normal human T-cells): 10 nM

CC(C)(C)[C@]1(O)CCN2C[C@H]3c4ccccc4CCc4cccc(c43)[C@@H]2C1 [Butaclamol]
blocking of DPAT-induced T-cell adhesion to fibronectin [5]: without effect

CCCN(CCC)C1Cc2cc(OC)c(OC)cc2C1.O=C(O)/C=C\C(=O)O [U-Mal, U-99194A maleate]
effect of pre-treatment on the DPAT suppressive effect in EAE [6]: prevented | inhibition of Dopamine-induced TNFα secretion by receptor-specific antagonists (TNFα secretion; Dopamine 10^−8 M, 24 hours, L-741,626 10^−7 M, U-Mal 10^−6 M, L-741,741 10^−6 M): inhibited by D3 | inhibition of Dopamine-induced IL-10 secretion by receptor-specific antagonists (IL-10 secretion [2]; Dopamine 10^−8 M, 72 hours): inhibited by the D2 and D3 | blocking of DPAT-induced T-cell adhesion to fibronectin [5]: succeeded in blocking | independent effect on T-cell adhesion to fibronectin ([5]; antagonist alone, data not shown): no independent effect | toxic effects on the human T-cells ([5]; data not shown): no toxic effects | effect on DTH by itself ([7]; U-Mal 10^−7 M alone): no effect by itself | effect of pre-treatment on DPAT suppression of DTH ([7]; U-Mal 10^−7 M, 5 minutes before DPAT 10^−8 M): near total block of protection; also recorded: prevented

OC1(c2ccc(Cl)cc2)CCN(Cc2c[nH]c3ccccc23)CC1 [L-741,626]
inhibition of Dopamine-induced IL-10 secretion by receptor-specific antagonists (IL-10 secretion [2]; Dopamine 10^−8 M, 72 hours): inhibited by the D2

gly-arg-gly-glu-ser (GRGESP) [RGE-containing peptide, non-relevant RGE-containing control peptide]
blocking of DPAT-induced T-cell adhesion to fibronectin by integrin blockers (α4β1 and α5β1 integrins): No significant effect | blocking of Dopamine-induced T-cell adhesion to fibronectin by integrin blockers (α4β1 and α5β1 integrins): No significant effect | inhibition of PMA-induced T-cell adhesion to fibronectin by integrin blockers (α4β1 and α5β1 integrins): insensitivity

Oc1cc2c(cc1O)C(c1ccccc1)CNCC2 (centres unmarked) [SKF 38393]
induction of TNFα secretion by receptor-specific Dopamine agonists (TNFα secretion; agonist 10^−7 M, 24 hours): induced by D1

gly-arg-gly-asp-ser (GRGDS) [RGD peptide]
blocking of DPAT-induced T-cell adhesion to fibronectin by integrin blockers (α4β1 and α5β1 integrins): effectively blocked | blocking of Dopamine-induced T-cell adhesion to fibronectin by integrin blockers (α4β1 and α5β1 integrins): effectively blocked | inhibition of PMA-induced T-cell adhesion to fibronectin by integrin blockers (α4β1 and α5β1 integrins): inhibition

From patent US20050163773A1, “Methods and pharmaceutical compositions for dopaminergic modulation of t-cell adhesion and activity” (priority 2001, published 2005)
